Two compounds from US12291508B2, “Hydrazide containing nuclear transport modulators and uses thereof” (Karyopharm Therapeutics Inc., priority 2011, dated 2025) can be followed below.

Each structure is given as a SMILES string. Counter-ions that a name gives are not always drawn.

The test system of one assay is MDA-MB-231. The assay can be described thus: Cell proliferation assay, MDA-MB-231. It is filed as cell-based. The settings on record: Homo sapiens; MDA-MB-231, type BaB, 72 h. On the procedure:
(§1) The cells were seeded at 5×10^3 to 1.5×10^4 cells (depending on cell type) in each well of a 96-well plate in 100 μL of fresh culture medium and adherent cells were allowed to attach overnight. The stock solutions of the compounds were diluted in cell culture medium to obtain eight concentrations of each drug, ranging from 1 nM to 30 μM and DMSO at less than 1% v/v was used as a negative control. The resulting drug solutions were transferred onto the cells. After 72 h of treatment, 20 μl of CellTiter 96® AQueous reagent was added into each well of the 96-well assay plates and the plate was incubated at 37° C. for 1-4 hours in a humidified, 5% CO2 atmosphere. Then the absorbance of each well was recorded at 490 nm using a 96-well plate reader. In most cases, the assay was performed in triplicate and the results were presented as half maximal inhibitory concentration (IC50).

In another assay the test system is MCF12A. The assay can be described thus: Cell proliferation assay, MCF12A. It is filed as cell-based. The settings on record: Homo sapiens, MCF-12A, type BaB, 72 h. The method, then: as §1
The next assay relates to UACC812. The assay can be described thus: Cell proliferation assay, UACC812. The settings on record: Homo sapiens, UACC-812; UACC812, type Lu, 72 h. It is filed as cell-based. On the procedure: as §1
The next assay concerns HCC-1569. The assay can be described thus: Cell proliferation assay, HCC-1569. Format: cell-based. The settings on record: Homo sapiens, HCC1569; HCC-1569, type BaA, 72 h. The method, then:
as §1

The next assay deals with HCC-1428. The assay can be described thus: Cell proliferation assay, HCC-1428. It is filed as cell-based. The settings on record: Homo sapiens, HCC1428; HCC-1428, type Lu, 72 h. On the procedure: as §1
Another assay has as its system MDA-MB-468 TNBC cells. Put plainly: Apoptosis marker immunoblot, MDA-MB-468. Format: cell-based. The settings on record: MDA-MB-468, 0 to 10 μM, 24 hours. The method, then:
(§2) MDA-MB-468 TNBC, DU4475 and HS578T TNBC cells were exposed to concentrations of Compound 1-3 ranging from 0 to 10 μM for 24 hours. After 24 hours, whole protein cell extracts were run on immunoblots and were exposed to antibodies against the proteins indicated in FIGS. 2A-2C.
Background: In western blotting, separated proteins are transferred to a membrane and probed.

The test system of the next assay is DU4475 luminal BC cells. Put plainly: Apoptosis marker immunoblot, DU4475. The settings on record: DU4475, 0 to 10 μM, 24 hours. It is filed as cell-based. On the procedure: as §2
A further assay deals with MDA-MB-468 cells. Put plainly: Long-term growth assay, MDA-MB-468. It is filed as cell-based. The settings on record: MDA-MB-468, 1 μM, 10 days, crystal violet. The source says: (§3) At the end of the assay, media was removed from the cells and the remaining cells were stained with crystal violet.
Another assay has as its system HS578T cells. The assay can be described thus: Long-term growth assay, HS578T. Format: cell-based. The settings on record: 1 μM, 7 days, crystal violet.
Source text: as §3

For assay [1], the target named is T1, CRM1-mediated nuclear export (Homo sapiens, UniProt O14980).
T1 construct: endogenous in cells; host or cells: U2OS-RevGFP cells
The assay can be described thus: RevGFP assay, inhibition of nuclear export. It is filed as cell-based. The settings on record: U2OS-RevGFP cells, about 1 hr incubation; read-out: Rev Export. The method, then: The ability of exemplary compounds of the invention to inhibit CRM1-mediated nuclear export was assessed in a RevGFP assay. Rev is a protein from human immunodeficiency virus type 1 (HIV-1) and contains a nuclear export signal (NES) in its C-terminal domain and a nuclear localization signal (NLS) in its N-terminal domain. Nuclear export of Rev protein is dependent on the classical NES/CRM1 pathway (Neville et al. 1997).
In this assay, U2OS-RevGFP cells were seeded onto clear-bottomed, black, 384-well plates the day before the experiment. Compounds were serially diluted 1:2 in DMEM, starting from 40 μM in a separate, 384-well plate, and then transferred onto the cells. The cells were incubated with compound for about 1 hr before fixation with 3.7% formaldehyde and nuclei staining with Hoechst 33258. The amount of GFP in cell nuclei was measured and the IC50 of each compound was determined (Kau et al. 2003).

In a further assay the test system is Zucker rats. It is filed as in vivo. The settings on record: orally administered at 0.625, 1.25 and 2.5 mg/kg. The method, then: For novel object recognition test, Zucker rats were placed into a test chamber (dimension 26″×18″×18″; L×W×H). Food and water was not be permitted during the test. The test had 3 phases: a) Familiarisation phase: Rats were singly placed in test chamber and allowed to freely explore for 60 min. The distance travelled by the animal during this phase was recorded using tracking software (AnyMaze system). The purpose of this phase was to familiarise the animals to the test apparatus. […] The distance travelled by the animal during this sample phase was automatically recorded, as well as the time spent by the animal interacting with the novel objects, using a tracking software system and visual observation. […] The distance travelled by the animal during the test phase was automatically recorded, as well as the time spent by the animal interacting with the novel and familiar objects, using a tracking software system and visual observation. Object interaction scores during both the sample and test phase were independently recorded by 2 observers. The final score represents the difference score between each reading. […]

T1 sequence (O14980 whole entry): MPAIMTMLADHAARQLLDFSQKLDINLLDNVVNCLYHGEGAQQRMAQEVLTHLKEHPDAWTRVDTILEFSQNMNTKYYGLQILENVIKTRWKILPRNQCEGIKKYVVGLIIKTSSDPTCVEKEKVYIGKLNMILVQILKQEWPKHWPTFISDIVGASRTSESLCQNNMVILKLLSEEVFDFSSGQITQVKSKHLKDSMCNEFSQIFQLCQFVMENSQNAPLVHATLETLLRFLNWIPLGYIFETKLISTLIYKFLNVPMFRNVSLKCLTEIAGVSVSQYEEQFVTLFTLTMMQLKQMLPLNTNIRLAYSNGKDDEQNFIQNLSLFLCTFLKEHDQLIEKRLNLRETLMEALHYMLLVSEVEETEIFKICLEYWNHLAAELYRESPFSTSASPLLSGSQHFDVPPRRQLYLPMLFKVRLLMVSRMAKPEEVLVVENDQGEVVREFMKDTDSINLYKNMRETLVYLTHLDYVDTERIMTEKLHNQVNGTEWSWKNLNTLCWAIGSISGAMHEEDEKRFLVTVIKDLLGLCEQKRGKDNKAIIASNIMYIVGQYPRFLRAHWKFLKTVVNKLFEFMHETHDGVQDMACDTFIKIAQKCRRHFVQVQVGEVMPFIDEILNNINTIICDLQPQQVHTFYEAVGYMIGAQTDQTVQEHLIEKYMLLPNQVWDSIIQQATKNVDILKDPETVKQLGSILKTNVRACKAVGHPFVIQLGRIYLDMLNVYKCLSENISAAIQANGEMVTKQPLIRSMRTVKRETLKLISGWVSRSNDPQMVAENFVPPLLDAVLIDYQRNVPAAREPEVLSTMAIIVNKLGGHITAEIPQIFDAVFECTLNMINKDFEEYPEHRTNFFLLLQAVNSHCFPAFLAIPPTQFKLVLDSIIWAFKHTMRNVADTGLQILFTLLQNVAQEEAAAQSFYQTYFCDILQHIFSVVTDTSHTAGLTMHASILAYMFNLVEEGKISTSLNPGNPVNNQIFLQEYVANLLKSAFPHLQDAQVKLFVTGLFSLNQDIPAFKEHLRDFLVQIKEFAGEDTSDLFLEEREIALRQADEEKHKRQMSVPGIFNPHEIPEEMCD

Consider `O=C(/C=C\n1cnc(-c2cc(C(F)(F)F)cc(C(F)(F)F)c2)n1)NNc1cnccn1` [Compound I-3, (Z)-3-(3-(3,5-bis(trifluoromethyl)phenyl)-1H-1,2,4-triazol-1-yl)-N′-(pyrazin-2-yl)acrylohydrazide], for which the IC50 was found to be 10 nM in the assay with MDA-MB-231; 150 nM in the assay with MCF12A; 590 nM in the assay on UACC812; 960 nM with HCC-1569; 10400 nM in the assay with HCC-1428. Moreover, the “apoptosis (PARP, caspase 3, cleaved PARP, cleaved caspase 3)” value in the assay on MDA-MB-468 TNBC cells and in the assay with DU4475 luminal BC cells was “induces apoptosis” in each case. The long-term growth result with MDA-MB-468 cells and with HS578T cells was “inhibited the long-term growth” each time.
Regarding `O=C(/C=C\n1cnc(-c2cc(C(F)(F)F)cc(C(F)(F)F)c2)n1)NNc1ccccn1` [Compound I-4, (Z)-3-(3-(3,5-bis(trifluoromethyl)phenyl)-1H-1,2,4-triazol-1-yl)-N′-(pyridin-2-yl)acrylohydrazide hydrochloride], in assay [1], the IC50 was ≤ 1000 nM. In the assay with Zucker rats, the “novel object recognition (object preference)” value is on record as “induced trends of improved novel object recognition”.
